# Test results from article PMC9837764 (Nature Communications, 2023).
# “And” between values parts separate entries of the source, which are not always exact repeats. Equal values may be shown once.
# Experiments:
# SARS-CoV-2 = assay: Cell-associated virus RNA in SARS-CoV-2-infected human primary monocytes; format: cell-based; settings: for Cell-associated virus RNA loads, inhibition (Fig1C source data, per donor): monocytes
# Protocol: (§1) Human primary monocytes were obtained after 3 h of plastic adherence of peripheral blood mononuclear cells (PBMCs). The use of primary human cell was approved by Institutional Review Board from the Oswaldo Cruz Foundation under protocol 49971421.8.0000.5248 with signed informed consent in accordance with the Hemotherapy Service of Hospital Clementino Fraga from the Federal University of Rio de Janeiro. All volunteers were de-identified. PBMCs were isolated from healthy donors by density gradient centrifugation (Ficoll-Paque, GE Healthcare). PBMCs (2.0 × 10^6 cells) were plated onto 48-well plates (NalgeNunc) in RPMI-1640 without serum for 2–4 h. Nonadherent cells were removed, and the remaining monocytes were maintained in DMEM with 5% human serum (HS; Millipore) and penicillin/streptomycin. The purity of human monocytes was above 95%, as determined by flow cytometric analysis (FACScan; Becton Dickinson) using anti-CD3 (BD Biosciences, cat # 555342, 1:40), anti-CD16 (Southern Biotech, cat # 561313, 1:20) and APC mouse IgG2a isotype (BD Biosciences, cat # 550882, 1/40) and PE mouse IgG1 isotype (BD Biosciences, 555749, 1/20).
# Total viral RNA from a culture supernatant and/or monolayers was extracted using QIAamp Viral RNA (Qiagen®) according to the manufacturer’s instructions. Quantitative RT‒PCR was performed using GoTaq® Probe qPCR and RT-qPCR Systems (Promega) in a StepOne™ Real-Time PCR System (Thermo Fisher Scientific) ABI PRISM 7500 Sequence Detection System (Applied Biosystems). Amplifications were carried out in 25 µL reaction mixtures containing 2× reaction mix buffer, […] of each primer, 10 µM of probe, and 5 µL of RNA template. Primers, probes, and cycling conditions recommended by the Centers for Disease Control and Prevention (CDC) protocol were used to detect SARS-CoV-2[52]. The standard curve method was employed for virus quantification. For reference to the cell amounts used, the housekeeping gene RNAse P (F-5′-[…] -3′, R-5′[…] -3′, P-5′-FAM-[…] -BHQ-1-3′) was amplified. The Ct values for this target were compared to those obtained for different cell amounts, 10^7 to 10^2, for calibration.
# TNF-α = TNF-α in supernatant of SARS-CoV-2-infected human primary monocytes; format: cell-based; settings: infected monocytes
# Protocol: as §1
# [1] = system: Salmonella typhimurium TA 100
smiles,measurement,setting,value
"c1coc(CNc2ncnc3[nH]cnc23)c1 [MB-905, N6-furfurylaminopurine]",Cell-associated virus RNA levels in SARS-CoV-2-infected monocytes,SARS-CoV-2; Fig. 1c,reduced cell-associated virus RNA levels in a concentration-dependent manner
same,"Cell-associated virus RNA loads, inhibition (Fig1C source data, per donor)","SARS-CoV-2; 24 h, Drug 1",41 and 30 and 63 and 20 and 2 (2×)
same,"Cell-associated virus RNA loads, inhibition (Fig1C source data, per donor)","SARS-CoV-2; 24 h, Drug 10",93 and 42 and 46 and 13 and 6 and 12
same,"Cell-associated virus RNA loads, inhibition (Fig1C source data, per donor)","SARS-CoV-2; MOI 0.1, 24 h, Drug 0.1",2 (3×) and 5 and 3 and 1
same,SARS-CoV-2-induced TNF and IL-6 levels,TNF-α; 10 µM,diminished
same,"TNF-α levels in the culture supernatant (Fig1D source data, per donor)","TNF-α; drugs at 10 µM, 24 h",0.7 and 0.9 and 0.537 and 2.5 and 0.474 and 3.4
same,"Cytotoxicity and mutagenicity, preliminary assay TA 100",[1],not observed
